Consider four compounds from patent publication US20070066561A1, “Drug delivery and targeting with vitamin B12 conjugates” (New York University, priority 2002, published 2007).

Data set [1] has as its system KARPAS-291 Lymphoma. Description: Cytotoxicity against human cell lines grown in culture, MTT assay. The settings on record: 72 hr continuous incubation, 5% human serum, relative cell growth by MTT, means of duplicate experiments. Format: cell-based. An excerpt: (§1) The data below are means of duplicate experiments with similar results.
Data set [2] concerns HL60 Promyelocytic leukemia. The description is as above. Format: cell-based. The settings on record: 72 hr continuous incubation, 5% human serum, relative cell growth by MTT, means of duplicate experiments.
Excerpt: as §1

The subject of data set [3] is K562 Erythroleukemia. The description is as above. The data set is classed as cell-based. The settings on record: 72 hr continuous incubation, 5% human serum, relative cell growth by MTT, means of duplicate experiments.
Excerpt: as §1

Data set [4] is described as follows: Bioactivity of cobalamin conjugates (test not described).
Data set [5] has as its target T1, transcobalamin II (TCII) (Homo sapiens, UniProt P20062).
T1 sequence (P20062 19-427): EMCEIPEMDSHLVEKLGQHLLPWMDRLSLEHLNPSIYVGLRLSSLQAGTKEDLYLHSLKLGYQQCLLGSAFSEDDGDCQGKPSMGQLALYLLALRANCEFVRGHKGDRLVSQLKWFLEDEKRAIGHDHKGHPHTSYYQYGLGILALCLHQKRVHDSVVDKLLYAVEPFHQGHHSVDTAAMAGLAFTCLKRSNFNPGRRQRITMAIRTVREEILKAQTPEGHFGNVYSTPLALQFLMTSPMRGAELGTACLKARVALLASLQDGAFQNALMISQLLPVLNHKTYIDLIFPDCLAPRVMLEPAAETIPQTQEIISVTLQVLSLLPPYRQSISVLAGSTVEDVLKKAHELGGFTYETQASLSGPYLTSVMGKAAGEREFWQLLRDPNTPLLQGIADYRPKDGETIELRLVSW
Description: Binding to transcobalamin II. The following applies: compared with control vitamin B12; listed as p-iodohippuric acid TFP ester conjugated to the e-cyanocobalamin via the 4,7,10-. As for the experimental part: This conjugate may be used as a standard for future B12 derivatives because of its higher rate of binding to TCII, which is required for efficient delivery to the appropriate receptors.
The p-iodohippuric acid TFP ester conjugated to the e-cyanocobalamin via the 4,7,10-trioxa-1,13-tridecanediamine linker was assessed for binding to transcobalamin II (TCII).

For data set [6] the following is noted: cited from earlier work.
For data set [7] the following is noted: between pH about 4 and 7; cited from earlier work.

By IC50 is commonly meant the concentration at which inhibition is half-maximal. The low end stands for greater potency, the high end for weaker potency.

Converted amounts (≈) assume the structure as drawn.

With `CC(=O)O[C@H]1C(=O)[C@@]2(C)[C@H]([C@H](OC(=O)c3ccccc3)[C@]3(O)C[C@H](OC(=O)[C@H](O)[C@@H](NC(=O)c4ccccc4)c4ccccc4)C(C)=C1C3(C)C)[C@]1(OC(C)=O)CO[C@@H]1C[C@@H]2O` [Taxol, Paclitaxel], the IC50 was found to be 2 ng/mL (≈ 2.34 nM) in data set [1], 0.15 ng/mL (≈ 0.176 nM) in data set [2] (HL-60) and 4 ng/mL (≈ 4.68 nM) in data set [3] (K562).
In the case of “B12-P-Hippuric acid-4,7,10-trioxa-1,13-tridecanediamine e-cyanocobalamin monocarboxylic acid conjugate [B12 P-Hippuric acid]”, the Bioactivity entry in data set [4] is “bioactive”. Also, in data set [5], the “Binding to TCII” value was “substantially as great as for control vitamin B12”.
For the compound “p-iodohippuryl-1,12-diaminododecane conjugated to cyanocobalamin-e-carboxylate”, the Bioactivity entry in data set [4] was “most bioactive conjugate studied”.
As to cyanocobalamin [B12], the “Cytotoxicity, KARPAS-291 Lymphoma” value in data set [1] was 294 ng/mL. In data set [2], the “Cytotoxicity, HL60 Promyelocytic leukemia” value came out at 152 ng/mL. In data set [3], the “Cytotoxicity, K562 Erythroleukemia” value stood at 250 ng/mL. For the same compound, in data set [6], the “Solubility in acetone, ether, and chloroform” value is on record as “insoluble”; the “Solubility in lower alcohols and phenol” value was “moderately soluble”. In data set [6] (room temperature), the Solubility in water was 12 mg/mL. The “Stability in aqueous solutions” value in data set [7] is reported as “quite stable”.
